Where a name gives a salt, the structure may show the parent alone. Read-outs that look alike come from different tables or passages of the source.
What was measured:
Rat PK evaluation = type: in vivo; details: plasma, SD rats; for bioavailability: n=3, read-out: F % (absolute bioavailability); for clearance: n=3, read-out: Cl_obs iv (clearance rate) (converted); for Vd: n=3, read-out: Vz_obs iv (apparent volume of distribution); for Tmax: n=3, median, read-out: Tmax po (time of maximum observed plasma concentration)
Experimental: Animal Administration and Sample Collection:
The study compounds A1, A6, A32, A41 and A42 were each dissolved in normal saline to prepare solutions. The solutions of the compounds were separately administered to SD rats by intragastric administration at a dose of 5.0 mg/kg. Time points for blood collection were 15 min, 30 min, 1 h, 2 h, 4 h, 6 h, 8 h and 24 h.
The study compounds A1, A6, A32, A41 and A42 were each dissolved in normal saline to prepare solutions. The solutions of the compounds were separately administered to SD rats by intravenous push at a dose of 1.0 mg/kg. Time points for blood collection were 5 min, 15 min, 30 min, 1 h, 2 h, 4 h, 6 h, 8 h and 24 h.
Venous catheterization was performed the day before the administration. Subsequent to the administration, about 300 μL of blood was collected from the jugular vein and put into anticoagulation tubes containing EDTA-K2. Preparation was performed within 30 min after the blood collection. Plasma samples were obtained by centrifugation at 8,000 rpm for 6 min at 4° C., and were stored in a −80° C. refrigerator before plasma testing.
(1) the samples to be tested were taken out of the −80° C. refrigerator, naturally thawed at room temperature and then swirled for 5 min;
(2) 20 μL of plasma sample was accurately pipetted into a 1.5 mL centrifuge tube;
(3) 200 μL of internal standard working solution (solution of tolbutamide in methanol) with a concentration of 100 ng/mL was added, and uniform mixing was performed;
(4) after 5 min of swirling, centrifugation was performed at 12,000 rpm for 5 min;
(5) 50 μL of supernate was accurately pipetted into a 96-well plate added with 150 μL water/well in advance;
(6) uniform mixing was performed by swirling for 5 min, followed by LC-MS/MS assay.
Analyst 1.6.3 from AB Sciex was used to output concentration results of tested compounds. Microsoft Excel was used to calculate parameters such as mean value, standard deviation and variation coefficient (excluding those outputted directly by Analyst 1.6.3). Pharsight Phoenix 6.1 software NCA was adopted to calculate PK parameters (Tmax was median).

rhVAP-1 = biological target: T1, rhVAP-1 (Homo sapiens, UniProt Q16853); assay: Inhibitory activity against rhVAP-1 enzyme (Biological Example 1); type: biochemical; details: Table 1; benzylamine substrate, Amplex Red/HRP
T1 construct: purchased PeproTech
T1 sequence (Q16853 27-763 limits assumed): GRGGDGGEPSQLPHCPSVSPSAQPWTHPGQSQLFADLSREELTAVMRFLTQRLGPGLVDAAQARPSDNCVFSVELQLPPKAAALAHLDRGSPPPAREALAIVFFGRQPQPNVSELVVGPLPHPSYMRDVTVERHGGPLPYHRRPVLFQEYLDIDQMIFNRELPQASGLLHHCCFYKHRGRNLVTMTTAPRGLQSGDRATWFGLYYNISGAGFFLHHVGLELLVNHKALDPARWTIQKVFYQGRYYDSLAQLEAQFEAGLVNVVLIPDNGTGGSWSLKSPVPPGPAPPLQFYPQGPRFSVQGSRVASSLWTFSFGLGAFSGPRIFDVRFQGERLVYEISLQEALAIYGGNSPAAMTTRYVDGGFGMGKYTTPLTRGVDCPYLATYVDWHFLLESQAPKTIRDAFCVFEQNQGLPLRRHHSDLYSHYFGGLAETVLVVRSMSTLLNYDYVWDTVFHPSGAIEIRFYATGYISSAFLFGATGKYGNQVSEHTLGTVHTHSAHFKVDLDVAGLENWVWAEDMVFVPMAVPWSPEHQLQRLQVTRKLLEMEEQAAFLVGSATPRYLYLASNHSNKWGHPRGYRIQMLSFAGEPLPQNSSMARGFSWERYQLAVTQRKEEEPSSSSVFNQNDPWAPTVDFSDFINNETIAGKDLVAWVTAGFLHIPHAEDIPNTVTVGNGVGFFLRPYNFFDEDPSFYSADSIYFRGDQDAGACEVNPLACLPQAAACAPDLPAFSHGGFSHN
Experimental: 1. Inhibitory Activity of Compounds Against rhVAP-1 Enzyme
(1) Instrument, Consumable and Reagent
Multifunctional microplate reader (MD, FlexStation3), black unclear-bottom 96-well plate (Corning), and rhVAP-1 (PeproTech)
(2) Preparation of Concentration Gradient Compound Solutions
An appropriate amount of the compound to be tested was taken, dissolved in DMSO to 10 mM and then stored. Before the study, an appropriate amount of mother liquor of the 10 mM compound to be tested was diluted with DMSO, so that 1 mM solution was obtained. The solution was then gradiently diluted 3-fold with DMSO, 10 concentration gradients in total. PBS was then used to carry out 100-fold dilution, so that compound solutions of 10× series of concentrations were prepared.
(3) Preparation of Enzyme Solutions
An appropriate amount of protein diluent was added into rhVAP-1 powder, obtaining 1 mg/mL of mother liquor for storage. Before the study, PBS was used to carry out dilution to obtain enzyme solutions of 4× concentrations.
(4) Preparation of Substrate Mixtures of 2× Concentrations
An appropriate amount of benzylamine was weighed and dissolved with PBS to obtain 200 mM of benzylamine solution. The benzylamine solution was added with 2 mM of Amplex Red mother liquor and 500 U/mL of HRP mother liquor and diluted with PBS to obtain substrate mixtures of 2× concentrations.
10 μL compound solutions of different concentrations, 25 μL rhVAP-1 enzyme solutions of 4× concentrations and 15 μL of PBS were first added into a 96-well plate, shaken to be mixed uniformly and then incubated at 37° C. for 30 min. 50 μL substrate mixtures of 2× concentrations were then added into each well, and the microplate reader was immediately used to detect fluorescence intensity of each well with 565 nm exciting light and 590 nm emission light for 5 min each time, 25 min in total. […]
V: fluorescence change rate; Ft: fluorescence reading at time point t; F0: initial fluorescence reading; Time: duration t; Vcmpd: fluorescence change rate of tested compound; Vmax: Max hole fluorescence change rate. […]

[1] = IV 1 mg/kg, n=3, read-out: AUCinf iv (area under plasma concentration-time curve 0-∞)
[2] = IV 1 mg/kg, n=3, read-out: tz1/2 iv (terminal half-life) (converted)
[3] = PO 5 mg/kg, n=3, read-out: AUCinf po (area under plasma concentration-time curve 0-∞)
[4] = PO 5 mg/kg, n=3, read-out: tz1/2 po (terminal half-life) (converted)

Compound	bioavailability (Rat PK evaluation; IV 1 mg/kg, PO 5 mg/kg) [%]	AUC(0-inf) (Rat PK evaluation; [1]) [ng·h/mL]	clearance (Rat PK evaluation; IV 1 mg/kg) [mL/min/kg]	Vd (Rat PK evaluation; IV 1 mg/kg) [L/kg]	half-life (Rat PK evaluation; [2]) [min]	Tmax (Rat PK evaluation; PO 5 mg/kg) [min]	AUC(0-inf) (Rat PK evaluation; [3]) [ng·h/mL]	half-life (Rat PK evaluation; [4]) [min]	IC50 (rhVAP-1) [nM]
Cl.NC/C(=C\F)Cn1cc2c(c1Cl)CCN(C1CC1)C2=O [Compound A42 hydrochloride, (E)-2-(2-(aminomethyl)-3-fluoroallyl)-1-chloro-5-cyclopropyl-2,5,6,7-tetrahydro-4H-pyrrolo[3,4-c]pyridin-4-one]	151	591	29.5	1.29	31.8	60	4480	79.8	
Cl.NC/C(=C\F)Cn1cc2c(c1Br)CCN(C1CC1)C2=O [Compound A32 hydrochloride, (E)-2-(2-(aminomethyl)-3-fluoroallyl)-1-bromo-5-cyclopropyl-2,5,6,7-tetrahydro-4H-pyrrolo[3,4-c]pyridin-4-one]	173	572	29.2	1.2	28.8	15	4950	45	
CCN1CCc2nn(C/C(=C/F)CN)cc2C1=O [Compound A6 hydrochloride, (E)-2-(2-(aminomethyl)-3-fluoroallyl)-5-ethyl-2,5,6,7-tetrahydro-4H-pyrazolo[4,3-c]pyridin-4-one]	76.3	445	37.8	2.38	43.8	30	1700	65.4	
NC/C(=C\F)Cn1ncc2c1CCN(C1CC1)C2=O [Compound A2 hydrochloride, (E)-1-(2-(aminomethyl)-3-fluoroallyl)-5-cyclopropyl-1,5,6,7-tetrahydro-4H-pyrazolo[4,3-c]pyridin-4-one]									73
NC/C(=C\F)Cn1cc2c(n1)CCN(C1CC1)C2=O [Compound A1, (E)-2-(2-(aminomethyl)-3-fluoroallyl)-5-cyclopropyl-2,5,6,7-tetrahydro-4H-pyrazolo[4,3-c]pyridin-4-one]	87	545	30.8	2.31	52.2	120	2370	70.2	38
NC/C(=C\F)Cn1cc2c(=O)n(C3CC3)ccc2n1 [Compound A41, (E)-2-(2-(aminomethyl)-3-fluoroallyl)-5-cyclopropyl-2,5-dihydro-4H-pyrazolo[4,3-c]pyridin-4-one]	61.9	531	31.5	1.53	33.6	60	1640	107	
